The results in this text go back to the METLIN SMRT retention time set (Domingo-Almenara et al. 2019).

The data set is described as follows: gradient 5% acetonitrile 3 min, to 50% in 2 min, to 85% in 15 min, held 3 min, 100 µL/min. The settings on record: column: Zorbax Extend-C18 2.1 x 50 mm; eluents: water / acetonitrile, 0.1% formic acid. A digest of the protocol:
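Standards, all pure, were combined into mixtures of ~100 molecules and run at 100 μL/min on a Zorbax Extend-C18 column (2.1 × 50 mm, 1.8 μm) with water and acetonitrile, each containing 0.1% formic acid. A coupled quadrupole time-of-flight mass spectrometer operated in positive and negative ionization mode. Retention time values come from computationally picked adduct peaks, each inspected manually.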
In the case of `Cc1ccc2nc3sc(C(=O)Nc4c(C)n(C)n(-c5ccccc5)c4=O)cc3c(=O)n2c1`, the RP-LC retention time was 635 s. The figure for `O=C(N[C@H](Cc1ccccc1)C(=O)NCc1cscn1)c1ccc(F)cc1` is 1090 s; for `C=Cc1ccc(CN2N=C(C(=O)N3CCOCC3)S(=O)(=O)c3ccc(C)cc32)cc1` it is 919 s. The figure for `CCc1nc2onc(C)c2c(=O)n1CC(=O)NCc1ccccc1F` is 792 s. `CCOc1ccc(S(=O)(=O)N2CCN(c3cc(C)nc(NC4CCCCC4)n3)CC2)cc1` gave an RP-LC retention time of 839 s. Consider `CCN1C(=O)COc2ccc(-c3noc(-c4ccccc4F)n3)cc21`, for which the RP-LC retention time is 1070 s. The figure for `CC(C)NC(=O)CCc1c(-c2ccc(Cl)cc2)nc2ccccn12` is 622 s; for `Cc1ccc(-c2nc(N)n(C(=O)c3ccc(C(C)(C)C)cc3)n2)cc1` it is 1280 s. The figure for `COc1cccc(N2CCN(S(=O)(=O)c3cc(-c4nnc(C5CCC5)o4)co3)CC2)c1` is 1060 s.

With `O=c1ccc(-n2cccn2)nn1CCNS(=O)(=O)c1ccc(Cl)s1`, the RP-LC retention time amounted to 708 s. The figure for `CC1CCN(S(=O)(=O)c2ccc(-c3nnc(C(=O)NCCCOC(C)C)o3)cc2)CC1` is 1030 s; for `CCN(CC)C(=O)N1CCCC(Cc2nncn2-c2ccccc2)C1` (centres undefined) it is 628 s. For `CCC(=O)N1CCN(c2nc3c(s2)CC(C(=O)Nc2ccc(C)cc2Cl)CC3)CC1` (centres undefined) the value was 607 s; for `CCOC(=O)c1[nH]c(C)c(CCC(=O)N2CCC(C(=O)NCc3ccc(C)o3)CC2)c1C`, 739 s. Turning to `CC(=O)c1ccc(NC(=O)CN2C(=O)C3CCCCN3c3ccc(C(=O)N4CCCC4)cc32)cc1` (centres undefined), the RP-LC retention time is 996 s. `CCCCN1CCN(C(=O)C2c3ccccc3CCN2C(C)=O)CC1` (centres undefined) had an RP-LC retention time of 585 s. Turning to `O=C(O)c1cc(-c2cccc3ccccc23)nc2ccc(Br)cc12`, the RP-LC retention time stood at 1090 s. As for `COCCN1CCC2(CC1)CN(Cc1ccccc1OC(C)C)Cc1ccccc1O2`, the RP-LC retention time came out at 611 s. The figure for `N#Cc1ccsc1NC(=O)c1cccc(Oc2ccccc2)c1` is 988 s; for `Cc1ccc(-c2nnc(-c3cccc(S(=O)(=O)NC(C)C(=O)O)c3)o2)cc1` (centres undefined) it is 784 s. For `COc1ccccc1-c1nnc(-c2cccc(S(=O)(=O)N3CCCCC3)c2)o1` the value was 981 s; for `CC1=C(C(=O)NCCN2CCOCC2)C2(CCN(Cc3ccccc3)CC2)OC1=O`, 634 s. `Cc1cc(C)n(-c2ccnc(N3CCC(C(=O)NCc4cccnc4)CC3)n2)n1` came in with an RP-LC retention time of 612 s.

`Cc1ccc(NC(=O)C2CCCN(c3ncnc4c3nc3n4CCCCC3)C2)cc1F` (centres undefined) returned an RP-LC retention time of 785 s. The figure for `Cc1c(Cl)cccc1Nc1c(-c2ccc(O)cc2)nc2ncccn12` is 705 s; for `Cc1sc2c(c1C)C(c1ccc(Cl)cc1)=N[C@@H](CC(=O)Nc1ccc(O)cc1)c1nnc(C)n1-2` it is 922 s. In turn, `COc1ccc2c(c1)c(CN1CCC(C(=O)NC3CCCCCC3)CC1)cn2C` returned an RP-LC retention time of 712 s. The figure for `CCc1cnn2c(NCc3ccc[n+]([O-])c3)cc(N3CCCC[C@H]3CCO)nc12` is 637 s. Compound `CC1(C)C(=O)Nc2ccc(S(=O)(=O)N3CCC(c4noc(-c5ccncc5)n4)C3)cc21` (centres undefined) showed an RP-LC retention time of 700 s.

On to `Cc1nnc2c(NC(=O)c3ccc(Cl)s3)cccn12`, for which the RP-LC retention time stood at 729 s. Take `COc1cc(NC(=O)N2CCC(C)(C(=O)NCc3ccc(C)cc3)CC2)cc(OC)c1OC`: the RP-LC retention time came out at 765 s. The figure for `c1ccc(-c2nc3cc(-c4noc(-c5cccnc5)n4)ccc3o2)cc1` is 1290 s; for `CC(C)(C)C(=O)Nc1ccc(N2CCN(CC(=O)N3CCCC3)CC2)cc1C(=O)O` it is 573 s. For `O=C(c1sc2ncccc2c1-n1cccc1)N1CCN(c2ncccn2)CC1` the value was 866 s. The figure for `CC(C)Cc1cc(-c2nn3c(COc4ccc(Br)cc4)nnc3s2)n[nH]1` is 1030 s. In turn, `COc1ccc(C(CC(=O)NCCN2CCN(C)CC2)N2Cc3ccccc3C2=O)cc1OC` (centres undefined) showed an RP-LC retention time of 579 s. In turn, `Cc1cccc(CNC(=O)c2nnc(-c3ccc(S(=O)(=O)N4CCC(C)CC4)cc3)o2)c1` had an RP-LC retention time of 1100 s. For `Cc1cc(C(=O)Nc2ccccc2F)nc2cc(-c3cccs3)nn12` the value was 1300 s; for `Cn1c(C(=O)c2ccncc2)cc2ccccc21`, 881 s; for `c1cncc(CN2CC(Oc3ccc(-c4noc(-c5ccncc5)n4)cc3)C2)c1`, 813 s.

In the case of `CC1CCN(C(=O)C2CC(=O)N(CCc3c[nH]c4ccc(F)cc34)C2)CC1` (centres undefined), the RP-LC retention time stood at 797 s.

With `CN(CCCNC(=O)C1CCCN(c2nnc(-n3cccc3)s2)C1)C1CCCCC1` (centres undefined), the RP-LC retention time worked out at 653 s. For `Cc1cnc(-n2nnc(C(=O)N3CCN(C(=O)c4ccco4)CC3)c2C)s1` the value was 687 s; for `CCOC(=O)c1cccc(N2C=C(C(=O)OC)S(=O)(=O)c3cc(F)ccc32)c1`, 932 s.

In turn, `O=c1c2cc(-c3cccs3)nn2cnn1Cc1nc(-c2ccc(F)cc2)no1` gave an RP-LC retention time of 1040 s. The figure for `C[C@]12CC[C@H](O)CC1=CCC1C2CC[C@]2(C)C(n3cnc4ccccc43)=CCC12` (some centres undefined) is 948 s; for `O=C(Nc1ccsc1-c1nnc(C2CC2)o1)c1cccc(Br)c1` it is 1390 s. The figure for `COc1cccc(S(=O)(=O)N2CCCC(Cn3c(C)nc4cccnc43)C2)c1` (centres undefined) is 693 s. Regarding `COC(=O)c1cnc2nc(C)ccc2c1Nc1cccc(Cl)c1F`, the RP-LC retention time is 704 s. Consider `O=C(c1cccs1)N1CCCc2cc(NS(=O)(=O)c3cc(F)ccc3F)ccc21`, for which the RP-LC retention time was found to be 832 s.

With `COCCNC(=O)CSc1nccnc1Oc1ccc(C)cc1`, the RP-LC retention time is 798 s. Consider `O=C(c1ccc(-c2cncnc2)nc1)N1CCN(c2ccccc2)CC1`, for which the RP-LC retention time amounted to 716 s. For `COCCN1CC(CO)C2(CCN(Cc3ccc(F)c(Cl)c3)CC2)C1` (centres undefined) the value was 550 s; for `O=C(c1cc(C2CC2)[nH]n1)N1CC(F)(F)C[C@H]1c1nc(C2CC2)no1`, 794 s; for `COc1cn2c(cc1=O)C(=O)N(CCNC(=O)c1ccc(Br)o1)CC2`, 556 s. On to `CCN1C(=O)Cc2ccccc2C1C(=O)NCc1ccco1` (centres undefined), for which the RP-LC retention time amounted to 690 s. The figure for `COc1ccc(C(=O)OCCN2CCN(C3=NS(=O)(=O)c4ccccc43)CC2)cc1OC` is 618 s; for `CCCNS(=O)(=O)c1cc(-c2nnc(-c3ccccc3)o2)ccc1OC` it is 891 s. `Fc1cccc(Cn2cc(-c3noc(-c4ccccc4)n3)nn2)c1` returned an RP-LC retention time of 986 s. The figure for `O=C(CN1C(=O)CC(c2ccccc2)S(=O)(=O)c2ccccc21)N1CCOCC1` (centres undefined) is 704 s; for `CCN(C(=O)c1ccco1)c1nc(-c2ccc(Br)cc2)cs1` it is 1320 s. The compound `CCOc1ccc2nc(C(=O)NC3CCCCC3)cn2n1` returned an RP-LC retention time of 897 s. Consider `COc1ccc(N2C(=O)C3N=NN(Cc4nc(-c5ccc6c(c5)OCO6)no4)C3C2=O)cc1` (centres undefined), for which the RP-LC retention time was 911 s. `CCOC(=O)c1cccc(N2C=C(C#N)S(=O)(=O)c3ccc(F)cc32)c1`: the RP-LC retention time is 939 s. The figure for `CC(C)N1CCN(S(=O)(=O)c2cc(-c3nnc(C4CCC4)o3)co2)CC1` is 622 s; for `O=C(NCCN1CCOCC1)c1nnc(-c2ccc(S(=O)(=O)N3CCCCC3)cc2)o1` it is 647 s. For `CCC1CCCCN1C(=O)c1cnc2nc(C)ccc2c1Nc1ccccc1` (centres undefined) the value was 650 s.

Regarding `O=C(COc1coc(CN2CCc3ccccc32)cc1=O)NCc1ccc2c(c1)OCO2`, the RP-LC retention time was determined as 781 s. For `O=C(CN1CCC(c2nc(-c3ccccc3)no2)CC1)NC1CCCCC1` the value was 700 s; for `COc1ccc(OC)c(CNC(=O)c2ccc3c(c2)N(C)C(=O)c2ccccc2O3)c1`, 852 s. For `Cc1ccc(Cn2nccc2NC(=O)c2cc(=O)c3ccccc3o2)cc1` the value was 816 s; for `O=C(Cn1ccc2ccn(Cc3cccnc3)c2c1=O)N1CCCC1`, 578 s; for `c1ccc(-c2ccc(-c3nccc4ccccc34)[nH]2)cc1`, 806 s. For `CC(=O)Oc1cc2c(s1)CCN(C(C(=O)C1CC1)c1ccccc1F)C2` (centres undefined) the value was 739 s; for `Cc1ccc(Cl)cc1NC(=O)c1cc2ccccc2cc1O`, 1180 s; for `O=C(NCc1ccco1)c1ccc2c(c1)CCCN2S(=O)(=O)c1ccccc1`, 914 s. `Cc1cccc(NC(=O)C2CCCN(S(=O)(=O)c3cc(-c4noc(C5CCC5)n4)cs3)C2)c1` (centres undefined) yielded an RP-LC retention time of 1130 s.

For `Cn1nc(-c2ccc(F)cc2)cc1C(=O)NCCN1CCN(C(=O)c2cccs2)CC1`, the RP-LC retention time came out at 593 s. `COc1ccc(CCNC(=O)N2CCC(c3nnc(C(F)(F)F)o3)CC2)cc1` registered an RP-LC retention time of 764 s.
